Measured values from ChEMBL document CHEMBL1201862, “PubChem BioAssay data set” (2004).
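Results reflect a 48-hour exposure of cells in 96-well plates to compound at five concentrations. GI50 marks 50% less growth.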 The source made the active and inactive calls. Rule as the data show it: active = GI50 up to about 1.1 µM and inactive = higher.

Columns and labels:
Experiment in all cases: growth of human tumour cells (NCI), 48 h
[1] = tested on: NCI/ADR-RES
[2] = tested on: SN12C
[3] = tested on: SK-MEL-2
[4] = tested on: MCF7
[5] = tested on: LXFL 529
[6] = tested on: SNB-75
[7] = tested on: NCI-H226
[8] = tested on: PC-3
[9] = tested on: A549
[10] = tested on: MDA-N
[11] = tested on: IGROV-1
[12] = tested on: HOP-62
[13] = tested on: UACC-62
[14] = tested on: RXF 393
[15] = tested on: SF-268
[16] = tested on: HL-60
[17] = tested on: OVCAR-5
[18] = tested on: SNB-19
[19] = tested on: KM12

Row | SMILES | GI50 [1] | GI50 [2] | GI50 [3] | GI50 [4] | GI50 [5] | GI50 [6] | GI50 [7] | GI50 [8] | GI50 [9] | GI50 [10] | GI50 [11] | GI50 [12] | GI50 [13] | GI50 [14] | GI50 [15] | GI50 [16] | GI50 [17] | GI50 [18] | GI50 [19]
1 | COc1ccc(C2C(C)C(=O)C(C)C(c3ccc(OC)cc3)N2N=O)cc1 (stereo not drawn) | 258 µM (inactive) | 530 µM (inactive) | 215 µM (inactive) | 372 µM (inactive) | > 750 µM (inactive) | 26.5 µM (inactive) | 207 µM (inactive) | 253 µM (inactive) | 239 µM (inactive) | 163 µM (inactive) | 165 µM (inactive) | 87.1 µM (inactive) | > 506 µM (inactive) | 40.3 µM (inactive) | 171 µM (inactive) | > 1000 µM (inactive) | 393 µM (inactive) | 195 µM (inactive) | > 678 µM (inactive)
2 | Cc1cc(N(CCC#N)S(=O)(=O)c2ccccc2)ccc1/C=C1N=C(/C=C/c2ccccc2)OC\1=O | – | > 100 µM (inactive) | > 100 µM (inactive) | – | 87.3 µM (inactive) | > 100 µM (inactive) | > 100 µM (inactive) | – | > 100 µM (inactive) | – | > 100 µM (inactive) | > 100 µM (inactive) | > 100 µM (inactive) | > 100 µM (inactive) | > 100 µM (inactive) | > 100 µM (inactive) | > 100 µM (inactive) | > 100 µM (inactive) | > 100 µM (inactive)
3 | CCCCCCCCCCCCCCCC(=O)OCC1OC(n2cc(F)c(=O)[nH]c2=O)C(NC(=O)N(CCCl)N=O)C(O)C1O (stereo not drawn) | – | 2.07 µM (inactive) | 1.35 µM (inactive) | – | 5.3 µM (inactive) | 0.228 µM (active) | 10.4 µM (inactive) | – | 0.767 µM (active) | – | 4.43 µM (inactive) | 0.354 µM (active) | 0.0103 µM (active) | 2.38 µM (inactive) | 0.0246 µM (active) | 0.428 µM (active) | 13.1 µM (inactive) | 0.979 µM (active) | 1.86 µM (inactive)
4 | O=c1[nH]cc(OCC(F)(F)F)c(=O)[nH]1 | – | > 100 µM (inactive) | > 100 µM (inactive) | – | > 100 µM (inactive) | > 100 µM (inactive) | – | – | > 100 µM (inactive) | – | > 100 µM (inactive) | > 100 µM (inactive) | > 100 µM (inactive) | > 100 µM (inactive) | > 100 µM (inactive) | > 100 µM (inactive) | > 100 µM (inactive) | > 100 µM (inactive) | > 100 µM (inactive)
5 | O=C(NC12CC3CC(CC(C3)C1)C2)C(=O)c1c[nH]c2ccc([N+](=O)[O-])cc12 | – | 31 µM (inactive) | > 59.8 µM (inactive) | – | 20.2 µM (inactive) | 14.2 µM (inactive) | 23.8 µM (inactive) | – | 11.3 µM (inactive) | – | > 94.2 µM (inactive) | 17.1 µM (inactive) | 19.1 µM (inactive) | 21.1 µM (inactive) | 9.48 µM (inactive) | > 35.6 µM (inactive) | > 87.5 µM (inactive) | > 20.1 µM (inactive) | 33.7 µM (inactive)
6 | COc1cc(-c2cccs2)sc1-c1cccs1 | – | 81.8 µM (inactive) | 31.5 µM (inactive) | – | 45 µM (inactive) | 14 µM (inactive) | 43.5 µM (inactive) | – | 33.3 µM (inactive) | – | 25.5 µM (inactive) | – | 40.9 µM (inactive) | 21.8 µM (inactive) | 53.6 µM (inactive) | 14.3 µM (inactive) | 22.3 µM (inactive) | > 100 µM (inactive) | 27.7 µM (inactive)
7 | CC(C)C12C=CC(C)(CC1)n1c(=O)c3cc4ccccc4cc3c(=O)n12 (stereo not drawn) | – | 34.7 µM (inactive) | 48.3 µM (inactive) | – | 34 µM (inactive) | 33.7 µM (inactive) | 40.6 µM (inactive) | – | 45.4 µM (inactive) | – | 47.8 µM (inactive) | > 100 µM (inactive) | – | > 100 µM (inactive) | 67.3 µM (inactive) | 34 µM (inactive) | 40.7 µM (inactive) | 40.5 µM (inactive) | 50.8 µM (inactive)
8 | CC(C)c1ccccc1NC(=O)/C(Cl)=C1/Sc2ccccc2NC1=O | – | 34 µM (inactive) | 15.7 µM (inactive) | – | 14.5 µM (inactive) | 22.7 µM (inactive) | 26.9 µM (inactive) | – | 32.3 µM (inactive) | – | 27 µM (inactive) | 30.8 µM (inactive) | 20.3 µM (inactive) | 13.3 µM (inactive) | 34 µM (inactive) | 21.2 µM (inactive) | 43.3 µM (inactive) | 38.5 µM (inactive) | –
9 | CCCCC(C(=O)CCC(=O)Nc1ccc(Cl)c(Cl)c1)C(=O)C(C)C (stereo not drawn) | – | > 100 µM (inactive) | 95.5 µM (inactive) | – | 34.8 µM (inactive) | 21.6 µM (inactive) | > 100 µM (inactive) | – | > 100 µM (inactive) | – | > 100 µM (inactive) | > 100 µM (inactive) | 19.6 µM (inactive) | > 100 µM (inactive) | > 100 µM (inactive) | > 100 µM (inactive) | 32.3 µM (inactive) | > 100 µM (inactive) | 84.7 µM (inactive)
10 | CCOC(=O)C1S/C(=N/c2ccc(Cl)cc2C)N=C1C (stereo not drawn) | – | 18.5 µM (inactive) | 16.4 µM (inactive) | – | 18 µM (inactive) | 23.6 µM (inactive) | 24 µM (inactive) | – | 21.4 µM (inactive) | – | 25.1 µM (inactive) | 24.8 µM (inactive) | 14.1 µM (inactive) | 15.3 µM (inactive) | 15.7 µM (inactive) | 4.34 µM (inactive) | 18.1 µM (inactive) | 26.6 µM (inactive) | 15.5 µM (inactive)
11 | C[C@@H]1[C@H](c2ccccc2)O[B-]2(c3ccc(Br)cc3)OC(=O)C[N+]12C (stereo partly drawn) | – | > 100 µM (inactive) | > 100 µM (inactive) | – | 86.5 µM (inactive) | 5.3 µM (inactive) | – | – | > 100 µM (inactive) | – | > 100 µM (inactive) | > 100 µM (inactive) | > 100 µM (inactive) | 26.5 µM (inactive) | 94.2 µM (inactive) | 24.9 µM (inactive) | > 100 µM (inactive) | > 100 µM (inactive) | > 100 µM (inactive)
12 | COc1ccc(C2Oc3c(cc(O)c(OC)c3C)[C@@H]2C)cc1OC (stereo partly drawn) | – | – | > 100 µM (inactive) | – | 65.9 µM (inactive) | 29.7 µM (inactive) | > 100 µM (inactive) | – | > 100 µM (inactive) | – | > 100 µM (inactive) | > 100 µM (inactive) | 90.2 µM (inactive) | 27.7 µM (inactive) | > 100 µM (inactive) | 50.2 µM (inactive) | > 100 µM (inactive) | > 100 µM (inactive) | > 100 µM (inactive)
13 | CC1(CO)OC1COCc1ccccc1 (stereo not drawn) | – | > 100 µM (inactive) | > 100 µM (inactive) | – | > 100 µM (inactive) | > 100 µM (inactive) | > 100 µM (inactive) | – | > 100 µM (inactive) | – | > 100 µM (inactive) | > 100 µM (inactive) | > 100 µM (inactive) | > 100 µM (inactive) | > 100 µM (inactive) | > 100 µM (inactive) | > 100 µM (inactive) | > 100 µM (inactive) | > 100 µM (inactive)
